Patent US4871716A, “Magnetically responsive, hydrophilic microspheres for incorporation of therapeutic substances and methods of preparation thereof” (priority 1986, dated 1989)

Assays:
[1] = Toxicity in CD-1 mice by i.p. injection; type: in vivo, CD-1 white female mice; conditions: mouse, in vivo, ip, 0.6 mg; 600 μg free AD; read-out: animals killed
Procedure: (§1) CD-1 white female mice, 5-7 weeks of age, weighing 30-33 g were injected by the intraperitoneal (i.p.) route with AD at concentrations of 0.6 mg and 1.5 mg dissolved in 0.5 ml of sterile saline. A second group of animals were injected with AD-PGA(15%)-HSA/MS-Q with 0.6, 1.5, and 2.5 mg of bound AD. For each concentration of the free and bound drug, 5 mice were used. PGA(15%)-HSA/MS-Q without AD was used for a control group and injected in equivalent weight amounts. Animals were then observed over a two-month period and fatalities were recorded for each group and tabulated.

CD-1 mice = assay: Toxicity in CD-1 mice by i.p. injection; type: in vivo, CD-1 white female mice
Procedure: as §1

COc1cccc2c1C(=O)c1c(O)c3c(c(O)c1C2=O)C[C@@](O)(C(=O)CO)C[C@@H]3O[C@H]1C[C@H](N)[C@H](O)[C@H](C)O1 [AD, Adriamycin]
mortality at 1460 h [1]: > 80% | Survival from Time of Administration (CD-1 mice; AD 0.6 mg i.p. (free or bound), 7 days): 5/5 | Survival from Time of Administration (CD-1 mice; AD 0.6 mg i.p. (free or bound), 14 days): 1/5 | Survival from Time of Administration (CD-1 mice; AD 0.6 mg i.p. (free or bound), 21 days): 1/5 | Survival from Time of Administration (CD-1 mice; AD 0.6 mg i.p. (free or bound), 28 days): 1/5 | Survival from Time of Administration (CD-1 mice; AD 0.6 mg i.p. (free or bound), 35 days): 1/5 | Survival from Time of Administration (CD-1 mice; AD 1.5 mg i.p. (free or bound), 7 days): 5/5 | Survival from Time of Administration (CD-1 mice; AD 1.5 mg i.p. (free or bound), 14 days): 0/5 | ulcer development at site of injection (CD-1 mice; i.p.): All animals treated with free AD developed these ulcers
